Experimental findings from US20080009418A1, “Selective Inhibitors” (Alchemia LTD., priority 2004, published 2008) are described below.

The target of one assay is T1, Human δ-opioid (DOP) (Homo sapiens, UniProt P41143).
T1 construct: purchased Perkin Elmer Biosignal
Description: Radioligand binding, human δ-opioid (DOP) membranes, FlashPlate, [3H]-Bremazocine. Particulars: compound at 10 μM; [3H]-Bremazocine. In short, it runs like this: (§1)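 Cloned human receptor membranes were coated onto FlashPlate wells and incubated with radioligand and compound (added from a 0.5 mM DMSO daughter plate) for 1 hour at room temperature in the dark. Scintillation counting gave percent inhibition, with DMSO defining total and reference ligand defining non-specific binding.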

Assay [1] concerns the target T2, Human melanin-concentrating hormone (MCH1) (Homo sapiens, UniProt Q99705).
T2 construct: purchased Perkin Elmer Biosignal
Description: Radioligand binding, human melanin-concentrating hormone MCH1 membranes, FlashPlate, [125I]-S36057. Particulars: compound at 10 μM; [125I]-S36057. In short, it runs like this:
as §1

The target of the next assay is T3, Human μ-opioid (MOP) (Homo sapiens, UniProt P35372).
T3 construct: purchased Perkin Elmer Biosignal
The assay is described as follows: Radioligand binding, human μ-opioid (MOP) membranes, FlashPlate, [3H]-Naloxone. The note with it: compound at 10 μM; [3H]-Naloxone. An outline of the steps: as §1

The next assay addresses T4, Human Melanocortin (MC4) (Homo sapiens, UniProt P32245).
T4 construct: purchased Perkin Elmer Biosignal
Description: Radioligand binding, human melanocortin MC4 membranes, FlashPlate, [125I]-NDP-αMSH. Particulars: compound at 10 μM; [125I]-NDP-αMSH. An outline of the steps:
as §1

The target of another assay is T5, Human Melanocortin (MC3) (Homo sapiens, UniProt P41968).
T5 construct: purchased Perkin Elmer Biosignal
The assay is described as follows: Radioligand binding, human melanocortin MC3 membranes, FlashPlate, [125I]-NDP-αMSH. Particulars: compound at 10 μM; [125I]-NDP-αMSH. In short, it runs like this: as §1

The next assay concerns the target T6, Human melanocortin (MC5) (Homo sapiens, UniProt P33032).
T6 construct: purchased Perkin Elmer Biosignal
The assay is described as follows: Radioligand binding, human melanocortin MC5 membranes, FlashPlate, [125I]-NDP-αMSH. Particulars: compound at 10 μM; [125I]-NDP-αMSH. In short, it runs like this: as §1

A further assay concerns the target T7, Human opioid (ORL1) (Homo sapiens, UniProt P41146).
T7 construct: purchased Perkin Elmer Biosignal
The assay is described as follows: Radioligand binding, human opioid ORL1 membranes, FlashPlate, [125I]-Nociceptin. Particulars: compound at 10 μM; [125I]-Nociceptin. In short, it runs like this:
as §1

Another assay addresses T8, Human κ-Opioid (KOP) (Homo sapiens, UniProt P41145).
T8 construct: purchased Perkin Elmer Biosignal
The assay is described as follows: Radioligand binding, human κ-opioid (KOP) membranes, filtration, [3H]-Diprenorphine. The note with it: compound at 10 μM; [3H]-Diprenorphine. In short, it runs like this: (§2)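 Filtration binding on cloned human receptor membranes (1 Unit/well), [125I]-Substance P for NK1 and [3H]-Diprenorphine for KOP, 1 h at room temperature. Filters PEI-presoaked, washed with cold 50 mM Tris-HCl pH 7.4, counted by scintillation; percent inhibition calculated, reference ligand defining non-specific binding.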

The target of the next assay is T9, Human neurokinin (NK1) (Homo sapiens, UniProt P25103).
T9 construct: purchased Perkin Elmer Biosignal
The assay is described as follows: Radioligand binding, human neurokinin NK1 membranes, filtration, [125I]-Substance P. Particulars: compound at 10 μM; [125I]-Substance P. In short, it runs like this:
as §2

Assay [2] concerns the target T10, Human neuropeptide Y (NPY-Y1) (Homo sapiens, UniProt P25929).
T10 construct: purchased Perkin Elmer Biosignal
T10 sequence (P25929 1-384): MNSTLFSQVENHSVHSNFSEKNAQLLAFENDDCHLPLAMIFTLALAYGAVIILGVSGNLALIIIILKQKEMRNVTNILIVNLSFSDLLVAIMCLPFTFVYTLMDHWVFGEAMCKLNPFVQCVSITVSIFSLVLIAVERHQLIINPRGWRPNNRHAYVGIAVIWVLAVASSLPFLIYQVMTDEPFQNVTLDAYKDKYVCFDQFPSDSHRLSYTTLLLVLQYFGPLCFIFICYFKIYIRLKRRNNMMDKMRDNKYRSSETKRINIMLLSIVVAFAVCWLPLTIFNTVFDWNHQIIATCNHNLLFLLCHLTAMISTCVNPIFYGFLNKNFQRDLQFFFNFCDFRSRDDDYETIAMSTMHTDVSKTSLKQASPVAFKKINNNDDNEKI
Description: Radioligand binding, human neuropeptide Y NPY-Y1 membranes, FlashPlate, [125I]-PYY. Particulars: compound at 10 μM; [125I]-PYY. An outline of the steps: as §1

The target of a further assay is T11, Mouse urotensin (mUR2) (Mus musculus, UniProt Q8VIH9).
T11 construct: purchased Perkin Elmer Biosignal
T11 sequence (Q8VIH9 1-385): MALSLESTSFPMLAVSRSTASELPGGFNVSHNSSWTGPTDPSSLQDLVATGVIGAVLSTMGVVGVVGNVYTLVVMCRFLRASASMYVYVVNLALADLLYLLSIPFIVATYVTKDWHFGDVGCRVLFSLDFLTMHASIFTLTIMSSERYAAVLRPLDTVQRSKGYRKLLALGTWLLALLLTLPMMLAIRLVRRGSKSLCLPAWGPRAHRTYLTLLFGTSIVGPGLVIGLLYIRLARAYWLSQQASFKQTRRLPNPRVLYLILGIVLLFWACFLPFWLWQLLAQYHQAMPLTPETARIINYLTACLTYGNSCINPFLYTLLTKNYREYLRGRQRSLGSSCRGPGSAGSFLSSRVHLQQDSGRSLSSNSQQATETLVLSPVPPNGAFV
Description: Radioligand binding, mouse urotensin mUR2 membranes, FlashPlate, [125I]-Urotensin II. Particulars: compound at 10 μM; [125I]-Urotensin II. In short, it runs like this: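 Cloned mouse urotensin (mUR2) receptor membranes from Perkin Elmer Biosignal were immobilized in FlashPlate microplates using a proprietary coating. Each well got 19.5 μl buffer, then 0.5 μl of DMSO, reference ligand, or compound. Adding 5 μl of [125I]-Urotensin II, diluted to 5× final concentration in binding buffer, started binding. Plates were sealed with TopSeal-A and incubated 1 hour at room temperature in the dark. Wells were counted for 30 seconds each on a TopCount after a 60-second delay, and percentage inhibition was calculated.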

T8 sequence (P41145 whole entry): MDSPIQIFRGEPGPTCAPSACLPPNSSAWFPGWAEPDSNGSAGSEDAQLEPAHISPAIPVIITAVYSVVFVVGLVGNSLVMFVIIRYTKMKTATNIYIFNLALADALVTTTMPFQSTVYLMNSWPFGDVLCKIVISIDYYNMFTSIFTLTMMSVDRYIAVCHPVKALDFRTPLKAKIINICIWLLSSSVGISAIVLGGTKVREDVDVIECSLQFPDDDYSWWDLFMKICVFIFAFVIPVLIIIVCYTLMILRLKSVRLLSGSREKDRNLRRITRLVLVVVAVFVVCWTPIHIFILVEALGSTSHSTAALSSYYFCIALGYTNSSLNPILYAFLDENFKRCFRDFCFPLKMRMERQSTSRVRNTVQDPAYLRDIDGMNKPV
T4 sequence (P32245 whole entry): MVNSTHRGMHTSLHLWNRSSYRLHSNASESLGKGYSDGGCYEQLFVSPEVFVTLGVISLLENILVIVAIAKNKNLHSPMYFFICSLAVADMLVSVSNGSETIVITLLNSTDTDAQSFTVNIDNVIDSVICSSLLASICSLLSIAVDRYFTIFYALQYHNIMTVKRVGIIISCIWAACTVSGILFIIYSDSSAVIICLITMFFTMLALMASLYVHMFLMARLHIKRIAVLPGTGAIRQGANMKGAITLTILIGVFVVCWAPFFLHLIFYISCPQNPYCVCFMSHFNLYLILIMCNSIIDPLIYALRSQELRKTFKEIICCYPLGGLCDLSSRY
T6 sequence (P33032 whole entry): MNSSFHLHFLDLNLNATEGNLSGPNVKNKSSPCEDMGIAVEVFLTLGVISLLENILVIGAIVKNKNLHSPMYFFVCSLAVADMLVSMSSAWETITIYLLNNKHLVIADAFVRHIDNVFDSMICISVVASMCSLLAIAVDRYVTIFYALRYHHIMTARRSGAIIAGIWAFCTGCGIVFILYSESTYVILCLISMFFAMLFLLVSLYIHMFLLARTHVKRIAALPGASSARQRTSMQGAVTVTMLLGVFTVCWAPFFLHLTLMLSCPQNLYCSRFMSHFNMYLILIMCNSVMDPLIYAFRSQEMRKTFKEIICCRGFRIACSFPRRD
T3 sequence (P35372 whole entry): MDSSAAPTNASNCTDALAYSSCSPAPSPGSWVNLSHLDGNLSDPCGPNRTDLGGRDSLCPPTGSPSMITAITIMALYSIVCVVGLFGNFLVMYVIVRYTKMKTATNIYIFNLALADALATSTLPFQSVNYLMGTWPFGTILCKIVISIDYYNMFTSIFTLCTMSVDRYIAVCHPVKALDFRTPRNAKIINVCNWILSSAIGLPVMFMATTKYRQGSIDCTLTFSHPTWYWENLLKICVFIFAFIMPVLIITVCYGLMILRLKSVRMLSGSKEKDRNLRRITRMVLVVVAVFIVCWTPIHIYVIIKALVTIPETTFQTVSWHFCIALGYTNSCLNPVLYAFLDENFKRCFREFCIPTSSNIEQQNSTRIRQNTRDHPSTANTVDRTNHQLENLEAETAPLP
T7 sequence (P41146 whole entry): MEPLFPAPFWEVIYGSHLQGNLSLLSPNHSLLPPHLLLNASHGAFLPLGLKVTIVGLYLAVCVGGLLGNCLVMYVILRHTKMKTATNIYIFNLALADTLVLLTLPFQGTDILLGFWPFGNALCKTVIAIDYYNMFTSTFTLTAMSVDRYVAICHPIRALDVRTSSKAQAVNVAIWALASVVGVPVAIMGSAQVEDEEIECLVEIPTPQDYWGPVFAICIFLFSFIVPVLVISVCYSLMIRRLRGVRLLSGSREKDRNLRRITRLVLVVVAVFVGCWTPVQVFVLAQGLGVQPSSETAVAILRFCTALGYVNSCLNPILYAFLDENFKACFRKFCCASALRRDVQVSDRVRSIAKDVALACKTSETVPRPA
T9 sequence (P25103 whole entry): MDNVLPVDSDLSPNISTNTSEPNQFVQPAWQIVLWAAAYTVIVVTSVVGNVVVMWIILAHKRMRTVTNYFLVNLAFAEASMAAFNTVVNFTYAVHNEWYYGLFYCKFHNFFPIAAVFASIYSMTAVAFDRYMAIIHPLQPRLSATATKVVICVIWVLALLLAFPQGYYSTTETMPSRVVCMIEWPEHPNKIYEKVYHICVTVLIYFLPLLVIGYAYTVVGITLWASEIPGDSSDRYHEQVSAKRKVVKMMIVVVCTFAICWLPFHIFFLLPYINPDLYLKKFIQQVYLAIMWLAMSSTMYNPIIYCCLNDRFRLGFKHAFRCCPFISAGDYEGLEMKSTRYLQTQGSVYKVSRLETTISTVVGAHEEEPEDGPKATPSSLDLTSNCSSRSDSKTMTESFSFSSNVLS
T5 sequence (P41968 whole entry): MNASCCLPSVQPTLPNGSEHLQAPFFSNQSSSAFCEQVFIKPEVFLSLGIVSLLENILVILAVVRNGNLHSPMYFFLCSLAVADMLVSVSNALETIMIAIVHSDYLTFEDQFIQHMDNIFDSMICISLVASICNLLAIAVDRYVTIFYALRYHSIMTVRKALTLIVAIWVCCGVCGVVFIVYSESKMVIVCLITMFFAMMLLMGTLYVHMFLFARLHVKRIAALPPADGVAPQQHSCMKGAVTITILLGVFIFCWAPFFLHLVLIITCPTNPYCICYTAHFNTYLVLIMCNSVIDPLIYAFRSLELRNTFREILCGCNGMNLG
T2 sequence (Q99705 whole entry): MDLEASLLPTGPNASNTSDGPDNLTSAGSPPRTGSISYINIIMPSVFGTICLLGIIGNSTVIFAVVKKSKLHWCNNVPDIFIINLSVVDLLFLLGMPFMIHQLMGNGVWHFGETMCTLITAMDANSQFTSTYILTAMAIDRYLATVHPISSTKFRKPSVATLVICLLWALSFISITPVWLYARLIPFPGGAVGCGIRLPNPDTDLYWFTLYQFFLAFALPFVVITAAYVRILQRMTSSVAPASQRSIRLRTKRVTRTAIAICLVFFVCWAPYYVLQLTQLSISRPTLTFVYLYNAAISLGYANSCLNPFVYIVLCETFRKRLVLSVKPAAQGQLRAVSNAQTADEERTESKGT
T1 sequence (P41143 whole entry): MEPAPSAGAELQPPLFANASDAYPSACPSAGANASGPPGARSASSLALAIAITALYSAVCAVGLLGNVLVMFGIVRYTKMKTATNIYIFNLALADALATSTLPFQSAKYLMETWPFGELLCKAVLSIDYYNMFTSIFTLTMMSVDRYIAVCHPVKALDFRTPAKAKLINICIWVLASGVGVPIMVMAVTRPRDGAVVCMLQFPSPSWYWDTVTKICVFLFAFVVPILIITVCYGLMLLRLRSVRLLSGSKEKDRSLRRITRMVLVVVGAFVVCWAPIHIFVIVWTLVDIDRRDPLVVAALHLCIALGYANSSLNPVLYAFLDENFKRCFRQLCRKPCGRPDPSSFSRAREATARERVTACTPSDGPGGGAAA

In the case of `CSC1O[C@H](COCc2ccc(Cl)cc2)[C@@H](O)[C@@H](OCc2ccc(-c3ccccc3)cc2)[C@H]1NC(=O)CCNC(=N)N` (stereo partly drawn) [compound 291], the “A1: inhibition of radioligand binding, human δ-opioid (DOP)” value (from here on “A1: inhibition … human δ-opioid (DOP)”) at Human δ-opioid (DOP) is listed as “− (“−” indicates less than 50% inhibition at 10 μM)”. In addition, the “A6: inhibition of radioligand binding, human melanin-concentrating hormone (MCH1)” value (from here on “A6: inhibition of radioligand binding”) in [1] was “− (“−” indicates less than 50% inhibition at 10 μM)”. At Human μ-opioid (MOP), the “A7: inhibition of radioligand binding, human μ-opioid (MOP)” value (from here on “A7: inhibition of radioligand binding”) is reported as “− (“−” indicates less than 50% inhibition at 10 μM)”. Also, the “A4: inhibition of radioligand binding, human melanocortin (MC4)” value (from here on “A4: inhibition of radioligand binding”) on Human Melanocortin (MC4) is reported as “+ (“+” indicates greater than 50% inhibition at 10 μM)”. Besides, the “A3: inhibition of radioligand binding, human melanocortin (MC3)” value (from here on “A3: inhibition of radioligand binding”) at Human Melanocortin (MC3) was “− (“−” indicates less than 50% inhibition at 10 μM)”. Besides, at Human melanocortin (MC5), the “A5: inhibition of radioligand binding, human melanocortin (MC5)” value (from here on “A5: inhibition of radioligand binding”) is given as “− (“−” indicates less than 50% inhibition at 10 μM)”. Further, the “A10: inhibition of radioligand binding, human opioid (ORL1)” value (from here on “A10: inhibition of radioligand binding”) at Human opioid (ORL1) is recorded as “− (“−” indicates less than 50% inhibition at 10 μM)”. In addition, on Human κ-Opioid (KOP), the “A2: inhibition of radioligand binding, human κ-opioid (KOP)” value (“A2: inhibition of radioligand binding” for short) is “− (“−” indicates less than 50% inhibition at 10 μM)”. Also, the “A8: inhibition of radioligand binding, human neurokinin (NK1)” value (from here on “A8: inhibition of radioligand binding”) at Human neurokinin (NK1) is recorded as “+ (“+” indicates greater than 50% inhibition at 10 μM)”. In addition, in [2], the “A9: inhibition of radioligand binding, human neuropeptide Y (NPY-Y1)” value (from here on “A9: inhibition of radioligand binding”) was “− (“−” indicates less than 50% inhibition at 10 μM)”. For the same compound, the “A11: inhibition of radioligand binding, mouse urotensin (mUR2)” value (“A11: inhibition of radioligand binding” below) at Mouse urotensin (mUR2) is listed as “− (“−” indicates less than 50% inhibition at 10 μM)”.

For `CSC1O[C@H](COCc2ccc(Cl)cc2)[C@@H](O)[C@@H](OCc2ccc(-c3ccccc3)cc2)[C@H]1NC(=O)CCCNC(=N)N` (stereo partly drawn) [compound 292], at Human δ-opioid (DOP), the “A1: inhibition … human δ-opioid (DOP)” value was “− (“−” indicates less than 50% inhibition at 10 μM)”. The “A6: inhibition of radioligand binding” value in assay [1] is listed as “− (“−” indicates less than 50% inhibition at 10 μM)”. Besides, the “A7: inhibition of radioligand binding” value on Human μ-opioid (MOP) is “− (“−” indicates less than 50% inhibition at 10 μM)”. Also, on Human Melanocortin (MC4), the “A4: inhibition of radioligand binding” value is “− (“−” indicates less than 50% inhibition at 10 μM)”. For the same compound, the “A3: inhibition of radioligand binding” value at Human Melanocortin (MC3) is “− (“−” indicates less than 50% inhibition at 10 μM)”. The “A5: inhibition of radioligand binding” value on Human melanocortin (MC5) is “+ (“+” indicates greater than 50% inhibition at 10 μM)”. The “A10: inhibition of radioligand binding” value at Human opioid (ORL1) is “− (“−” indicates less than 50% inhibition at 10 μM)”. The “A2: inhibition of radioligand binding” value on Human κ-Opioid (KOP) is on record as “− (“−” indicates less than 50% inhibition at 10 μM)”. For the same compound, the “A8: inhibition of radioligand binding” value on Human neurokinin (NK1) is listed as “+ (“+” indicates greater than 50% inhibition at 10 μM)”. For the same compound, the “A9: inhibition of radioligand binding” value in [2] is recorded as “− (“−” indicates less than 50% inhibition at 10 μM)”. Further, the “A11: inhibition of radioligand binding” value at Mouse urotensin (mUR2) is listed as “− (“−” indicates less than 50% inhibition at 10 μM)”.

As to `CSC1O[C@H](COCc2ccc(-c3ccccc3)cc2)[C@@H](O)[C@@H](OCc2ccc(-c3ccccc3)cc2)[C@H]1NC(=O)CCNC(=N)N` (stereo partly drawn) [compound 293], the “A1: inhibition … human δ-opioid (DOP)” value on Human δ-opioid (DOP) was “− (“−” indicates less than 50% inhibition at 10 μM)”. The “A6: inhibition of radioligand binding” value in assay [1] is “− (“−” indicates less than 50% inhibition at 10 μM)”. The “A7: inhibition of radioligand binding” value on Human μ-opioid (MOP) was “− (“−” indicates less than 50% inhibition at 10 μM)”. The “A4: inhibition of radioligand binding” value on Human Melanocortin (MC4) was “− (“−” indicates less than 50% inhibition at 10 μM)”. The “A3: inhibition of radioligand binding” value on Human Melanocortin (MC3) was “− (“−” indicates less than 50% inhibition at 10 μM)”. The “A5: inhibition of radioligand binding” value on Human melanocortin (MC5) is given as “− (“−” indicates less than 50% inhibition at 10 μM)”. Besides, at Human opioid (ORL1), the “A10: inhibition of radioligand binding” value was “− (“−” indicates less than 50% inhibition at 10 μM)”. Further, the “A2: inhibition of radioligand binding” value on Human κ-Opioid (KOP) was “− (“−” indicates less than 50% inhibition at 10 μM)”. In addition, the “A8: inhibition of radioligand binding” value at Human neurokinin (NK1) is given as “+ (“+” indicates greater than 50% inhibition at 10 μM)”. Further, in [2], the “A9: inhibition of radioligand binding” value is “− (“−” indicates less than 50% inhibition at 10 μM)”. Besides, the “A11: inhibition of radioligand binding” value on Mouse urotensin (mUR2) is recorded as “− (“−” indicates less than 50% inhibition at 10 μM)”.
